Assay results from patent US7569570B2, “Thienopyrimidines, process for preparing the same and use thereof” (Takeda Pharmaceutical Company Limited, priority 2002, dated 2009).
Where a name gives a salt, the structure may show the parent alone.

Key:
[1] = target: T1, Rat GnRH Receptor (Rattus norvegicus, UniProt P30969); test: 125I-leuprorelin binding inhibition, rat pituitary anterior lobe membrane fraction; conditions: 4° C. for 90 minutes, Hill plot
T1 construct: Anterior lobes of the pituitary glands were isolated from forty Wistar rats; from tissue; host or cells: rat (Wistar, male, 8 weeks) anterior pituitary membrane fraction
T1 sequence (P30969 1-327): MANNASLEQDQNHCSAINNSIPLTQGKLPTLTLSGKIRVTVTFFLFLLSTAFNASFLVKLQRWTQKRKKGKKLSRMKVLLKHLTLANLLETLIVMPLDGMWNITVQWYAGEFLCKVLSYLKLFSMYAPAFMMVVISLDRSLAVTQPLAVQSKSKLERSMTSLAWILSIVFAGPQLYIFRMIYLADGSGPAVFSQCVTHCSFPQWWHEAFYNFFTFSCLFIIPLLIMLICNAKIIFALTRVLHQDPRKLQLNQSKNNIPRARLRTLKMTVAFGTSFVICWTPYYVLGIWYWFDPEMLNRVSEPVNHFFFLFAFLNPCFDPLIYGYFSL
Experimental: (§1) (1) Preparation of ^125I-Leuprorelin
(§2) To a tube containing 10 μl of a 3×10^−4 M aqueous solution of leuprorelin and 10 μl of 0.01 mg/ml lactoperoxidase, 10 μl (37 MBq) of a solution of Na^125I was added. After stirring, 10 μl of 0.001% H2O2 was added, and a reaction was carried out at room temperature for 20 minutes. By adding 700 μl of a 0.05% TFA (trifluoroacetic acid) solution, the reaction was stopped, and the solution was purified by reversed-phase HPLC. The HPLC conditions are shown below. ^125I-leuprorelin was eluted at a retention time of 26 to 27 minutes.
(2) Preparation of a Pituitary Anterior Lobe Membrane […]
(§3) When the rat pituitary anterior lobe membrane fraction was used, the reaction was conducted at 4° C. for 90 minutes. […] After the filtration, the radioactivity of ^125I-leuprorelin remaining on the filter paper was measured with a γ-counter.
(§4) (TB−SB)/(TB−NSB)×100 (SB: radioactivity when the compound is added, TB: maximum binding radioactivity, NSB: non-specific binding radioactivity) was calculated to find the binding inhibition rate (%) of each test substance. […]

[2] = target: T2, Human GnRH Receptor (Homo sapiens, UniProt P30968); test: 125I-leuprorelin binding inhibition, membrane fraction of human GnRH receptor-expressing CHO cells; conditions: 25° C. for 60 minutes, Hill plot
T2 construct: expressed in transfected cells; host or cells: CHO (Chinese hamster ovary) cells
T2 sequence (P30968 1-328): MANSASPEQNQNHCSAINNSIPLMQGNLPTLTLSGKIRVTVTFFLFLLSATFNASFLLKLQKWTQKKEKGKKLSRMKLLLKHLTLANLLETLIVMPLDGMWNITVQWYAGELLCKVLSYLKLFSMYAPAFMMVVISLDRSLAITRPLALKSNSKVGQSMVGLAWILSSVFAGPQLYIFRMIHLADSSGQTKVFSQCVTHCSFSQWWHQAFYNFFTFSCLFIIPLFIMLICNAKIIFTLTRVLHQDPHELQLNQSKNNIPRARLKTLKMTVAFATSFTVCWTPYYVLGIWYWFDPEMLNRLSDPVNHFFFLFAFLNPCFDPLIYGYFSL
Experimental: as §1, §2
(3) Preparation of a CHO (Chinese Hamster Ovarian) Cell Membrane Fraction Containing Human GnRH Receptor
Human GnRH receptor-expressing CHO cells (10^9 cells) were suspended in phosphate-buffered saline supplemented with 5 mM EDTA (PBS-EDTA) and centrifuged at 100×g for 5 minutes. […]
as §3, §4

| Structure (SMILES) | IC50 [1] [µM] | IC50 [2] [µM] | melting point [°C] |
| --- | --- | --- | --- |
| CCNC(=O)Nc1ccc(-c2sc3c(c2CN(C)CCOC(C)C)c(=O)n(-c2ccccc2)c(=O)n3Cc2c(F)cccc2F)cc1 [Example 110, N-[4-(1-(2,6-difluorobenzyl)-[(2-(2-propoxy)ethyl(methyl)amino}methyl]-2,4-dioxo-3 phenyl-1,2,3,4-tetrahydrothieno[2,3-d]pyrimidin-6-yl)phenyl]-N′-ethylurea] | 0.2 | < 0.0001 | 224 |
| CCNC(=O)Nc1ccc(-c2sc3c(c2CN(C)CCOC)c(=O)n(-c2ccccc2)c(=O)n3Cc2c(F)cccc2F)cc1 [Example 112, N-[4-(1-(2,6-difluorobenzyl)-5-{[(2-methoxyethyl)(methyl)amino]methyl}-2,4-dioxo-3-phenyl-1,2,3,4-tetrahydrothieno[2,3-d]pyrimidin-6-yl)phenyl]-N′-ethylurea 1 hydrochloride] | 0.2 | 0.0001 |  |
| CCNC(=O)Nc1ccc(-c2sc3c(c2CN(C)CCN(C)S(C)(=O)=O)c(=O)n(-c2ccc(F)cc2)c(=O)n3Cc2c(F)cccc2F)cc1 [Example 37, N-{2-[{[1-(2,6-difluorobenzyl)-6-(4-{[(ethylamino)carbonyl]amino}phenyl)-3-(4-fluorophenyl)-2,4-dioxo-1,2,3,4-tetrahydrothieno[2,3-d]pyrimidin-5-yl]methyl}(methyl)amino]ethyl}-N-methylsulfonamide] |  |  | 228 to 230 |
| CCNC(=O)Nc1ccc(-c2sc3c(c2CN(C)CCN2CCCS2(=O)=O)c(=O)n(-c2ccccc2)c(=O)n3Cc2c(F)cccc2F)cc1 [Example 86, N-[4-(1-(2,6-difluorobenzyl)-5-([[2-(1,1-dioxo-2-isothiazolidinyl)ethyl](methyl)amino]methyl}-2,4-dioxo-3-phenyl-1,2,3,4-tetrahydrothieno[2,3-d]pyrimidin-6-yl)phenyl]-N′-ethylurea] |  |  | 210 to 211 |
| CCNC(=O)Nc1ccc(-c2sc3c(c2CN(C)C(C)C)c(=O)n(-c2ccccc2)c(=O)n3Cc2c(F)cccc2F)cc1 [Example 92, N-[4-(1-(2,6-difluorobenzyl)-5-{[isopropyl (methyl)amino]methyl}-2,4-dioxo-3-phenyl-1,2,3,4-tetrahydrothieno[2,3-d]pyrimidin-6-yl)phenyl]-N′-ethylurea] |  |  | 208 to 210 |
| CCNC(=O)Nc1ccc(-c2sc3c(c2CN(C)CCN(C)C(C)=O)c(=O)n(-c2ccccc2)c(=O)n3Cc2c(F)cccc2F)cc1 [Example 27, N-{2-[{[1-(2,6-difluorobenzyl)-6-(4-{[(ethylamino)carbonyl]amino}phenyl)-2,4-dioxo-3-phenyl-1,2,3,4-tetrahydrothieno[2,3-d]pyrimidin-5-yl]methyl}(methyl)amino]ethyl}-N-methylacetamide] |  |  | 180 to 181 |
| CCNC(=O)Nc1ccc(-c2sc3c(c2CN(C)CCN2CCOC2=O)c(=O)n(-c2ccccc2)c(=O)n3Cc2c(F)cccc2F)cc1 [Example 24] |  |  | 153 to 155 |
| CCNC(=O)Nc1ccc(-c2sc3c(c2CN(C)CCOC)c(=O)n(-c2ccc(OCCNS(C)(=O)=O)cc2)c(=O)n3Cc2c(F)cccc2F)cc1 [Example 106] |  |  | 232 to 235 |
| CCNC(=O)Nc1ccc(-c2sc3c(c2CN(C)CCOC)c(=O)n(-c2ccc(NC(=O)NCC)cc2)c(=O)n3Cc2c(F)cccc2F)cc1 [Example 99, N-[4-(3-(4-{(ethylamino)carbonylamino}phenyl)-1-(2,6-difluorobenzyl)-5-{[2-methoxyethyl(methyl)amino]methyl}-2,4-dioxo-1,2,3,4-tetrahydrothieno[2,3-d]pyrimidin-6-yl)phenyl]-N′-ethylurea] |  |  | 236 to 239 |
| CCNC(=O)Nc1ccc(-c2sc3c(c2CNCCOCC)c(=O)n(-c2ccccc2)c(=O)n3Cc2c(F)cccc2F)cc1 [Example 3] |  |  | 211 to 213 |
| CCNC(=O)Nc1ccc(-c2sc3c(c2CN(C)C2CCCC2)c(=O)n(-c2ccccc2)c(=O)n3Cc2c(F)cccc2F)cc1 [Example 93, N-{4-[5-{[cyclopentyl(methyl)amino]methyl}-1-(2,6-difluorobenzyl)-2,4-dioxo-3-phenyl-1,2,3,4-tetrahydrothieno[2,3-d]pyrimidin-6-yl]phenyl}-N′-ethylurea] |  |  | 210 to 213 |
